In patent publication US20080234345A1, “METHOD FOR REDUCING OR ALLEVIATING INFLAMMATION IN THE DIGESTIVE TRACT” (Gene Logic Inc., priority 2006, published 2008):

Legend:
[1] = system: NF-κB dependent transcription; test: TNFα-induced activation of NF-κB in recombinant HeLa reporter cells (luciferase); format: cell-based
Source text: To test the ACE2 inhibitor GL1001 for anti-inflammatory activity relevant to IBD, effects of the compound on activation of NF-κB dependent transcription by TNFα were examined in recombinant reporter cells containing a construct with a luciferase reporter gene under control of NF-κB dependent regulatory sequences, thereby allowing detection of NF-κB dependent transcription by measuring reporter enzyme using a conventional luciferase activity assay based on detection of generated light.
In particular, HeLa cells (American Type Culture Collection) were grown in Dulbecco's modified Eagles medium (DMEM) supplemented with 10% fetal calf serum and transiently transfected with an NF-κB-luc construct (Stratagene, Inc.), as follows (with all incubation steps at 37 C unless otherwise indicated). Cells were seeded and grown to about 70% confluency in a 10 cm cell culture dish. Plasmid DNA (10 μg) was added to 1 ml serum free DMEM media in a tube. Fugene 6 transfection reagent (30 μl) (Roche) was then pipetted slowly into the tube and the contents were gently mixed by inversion. The mixture was incubated at room temperature for 15 minutes and then added dropwise to cells in one 10 cm dish. Following incubation for 24 hours, cells were detached from the plate with Trypsin-EDTA (Gibco-BRL), transferred to wells in a clear-bottom white 96-well test plate (Fisher) with 100 μl per well serum free DMEM, at a density of 3×10^4 cells per well, and allowed to attach overnight. Compound (GL1001) was then added to wells at a concentration of approximately 0, 0.008, 0.04, 0.2, 1.0 or 5.0 μM, followed immediately by addition of TNFα (R&D) to a final concentration of 20 ng/ml. After incubation for 6 hours, 100 μl of Bright-Glo Luciferase buffer (Promega, Cat# E2610) was added, and the plate was incubated at room temperature, with mild shaking, for 10 min. Bioluminescence was then measured using a Veritas luminometer (Turner BioSystems). Each plotted data point represents the average bioluminescence of 4 independent wells.

[2] = system: activator protein-1 (AP-1); test: Basal in vivo reporter luciferase expression in AP-1::Luc mice; details: AP-1::Luc mice (data not shown)
[3] = system: dextran sulfate sodium (DSS) induced colitis in mice; test: DSS induced colitis in NF-κB::Luc mice (Example 5); format: in vivo; details: 100 mg/kg s.c. per day
Source text: GL1001 was further tested for in vivo anti-inflammatory activity by examining its effects on dextran sulfate sodium (DSS) induced colitis in mice. […] See, e.g., Hollenbach et al. (2004) FASEB J. 18(13):1550-1552. See also Bryne et al. (2006), Current Opinion in Drug Discovery & Development 8(2):207-217 and sources cited therein. These pathologies include predominant left-sided colonic inflammation, prominent regeneration of the colonic mucosa cells with dysplasia leading to colon cancer, shortening of the large intestine, focal crypt damage, and frequent lymphoid hyperplasia in both biological systems. Further, according to Hollenbach et al (2004), supra, DSS-induced colitis in mice has a high value in assessing the efficacy of therapeutic agents commonly used in the treatment of colitis, since all therapeutically beneficial substances in human IBD were also shown to reduce the disease activity in this mouse model.
The study was designed with three groups: control (5 mice), 2.5% DSS alone (10 mice), and 2.5% DSS with GL1001 treatment (100 mg/kg subcutaneously per day) (10 mice). NF-κB::Luc mice were used to measure NF-κB activation as an indicator of inflammatory activity, as described above. In particular, organ specific luciferase activity was measured, in addition to body weight, fluid intake, occult fecal blood, organ weights and neutrophil infiltration (MPO assay). NF-κB::luc BL/6 albino background mice of 6-8 weeks of age were provided with 2.5% dextran sodium sulfate (DSS, MW 40,000; MP Biomedicals) in the drinking water. Mice were weighed, imaged and dosed with GL1001 daily. Fecal samples were collected from the bottom of the cages for each treatment group and tested for fecal consistency and occult blood using Hemocult Tape as directed by the manufacturer (Fisher Scientific) and fluid consumption was measured. At the conclusion of the study, the GI tract was removed, the various sections were cleaned and weighed, tissue samples were prepared for bioluminescent assays and myeloperoxidase (Myeloperoxidase assay kit, Cytostore) to look at neutrophil infiltration.
The mice were weighed and imaged at the time of daily GL1001 or vehicle control administration. Biophotonic images of the mice were acquired each day, as described above, with quantitative abdominal imaging results shown in FIG. 7. […] Water consumption was monitored for all of the animals and similar consumption rates indicate that DSS treated mice were all receiving similar amounts of DSS (FIG. 8).
Inflammatory bowel disease progression was monitored using an inflammatory bowel disease activity index which consists of the sum of percent weight loss, stool consistency and occult fecal blood divided by 3.

[4] = system: DSS-induced NF-κB signaling; test: Subsequent DSS study in NF-κB::Luc mice, oral gavage; format: in vivo; details: 300 mg/kg/day, twice daily by oral gavage; 2.5% DSS
Source text: In a subsequent study in NF-κB::Luc mice, 2.5% DSS treatment tended to increase NF-κB signaling, as measured by luciferase expression, in distal colon and mesenteric lymph tissues, although these increases were generally not statistically significant. […] Reasons for lack of effect of GL1001 in this study are not fully understood at present.

[5] = system: DSS-induced colitis in Balb/c mice; test: DSS-induced histological effects in colon of Balb/c mice (Example 6); format: in vivo
Method: A study was designed with five groups of Balb/c mice: naïve control, DSS followed by vehicle, DSS followed by dexamethasone 3 mg/kg/day, DSS followed by GL1001 10 mg/kg/day, and DSS followed by GL1001 100 mg/kg/day. Administration of DSS was via drinking water (DSS 5% in water), from day 0 to day 7 of the study. […] Administration of vehicle, dexamethasone and GL1001 was subcutaneous, once daily, from day 7 until termination of the study (day 14).
At termination of the study, samples from proximal, transverse and distal portions of the colon of each animal were collected for histological analysis, which included: • (a) inflammation score (0-5), based on leukocyte infiltration in mucosa and submucosa, crypt abcess and edema; • (b) glandular score (0-5), based on crypt destruction (crypts function to produce mucin and generate epithelium); and • (c) erosion score (0-5), based on integrity of epithelium or degree of ulceration thereof. A total histopathological score was obtained by adding the scores from (a), (b) and (c) above.

[6] = GL1001 100 mg/kg/day s.c. once daily

## CC(C)C[C@H](N[C@@H](Cc1cncn1Cc1cc(Cl)cc(Cl)c1)C(=O)O)C(=O)O [GL1001, (S,S)-2-[1-carboxy-2-[3-(3,5-dichlorobenzyl)-3H-imidazol-4-yl]-ethylamino]-4-methylpentanoic acid]
[1]; 8 nM GL1001, TNFα 20 ng/ml, 6 hours
  inhibition of TNFα induced activation of NF-κB dependent transcription: over 80%
[1]; 0.2 μM GL1001, TNFα 20 ng/ml, 6 hours
  maximal inhibition of TNFα induced activation of NF-κB dependent transcription: over 95%
[1]; all tested concentrations (0.008-5.0 μM)
  TNFα induced activation of NF-κB dependent transcription: significantly inhibited
[2]
  basal in vivo levels of reporter luciferase expression: no significant effect
[3]; between days 3 and 8
  inflammatory bowel disease activity index: slight delay
[3]; between days 4 and 9, vs DSS only
  reduction in body weight: significantly delayed
[3]; from study day 6
  NF-κB-driven luciferase expression, abdominal imaging, DSS only vs DSS+GL1001: non-statistically significant divergence
[3]; cecum and large intestine (colon)
  DSS induced organ weight increases (organ weight/body weight ratio): completely prevented
[4]
  DSS-induced NF-κB signaling (luciferase expression): did not lower
[5]; GL1001 10 mg/kg/day s.c.
  histological effect: No significant histological effect
[5]; GL1001 100 mg/kg s.c. once daily, one animal
  micrograph of distal colon section (FIG. 14): Inflammation and gland loss are mild, and no erosion is seen
[5]; [6]
  erosion score, distal colon: significantly reduced
  glandular score, distal colon: significantly reduced
  inflammation score, distal colon: significantly reduced
  total histopathological score, distal colon: significantly reduced
[5]; s.c. once daily day 7-14, dexamethasone 3 mg/kg/day, GL1001 10 and 100 mg/kg/day
  disease activity (based on fecal samples): No significant improvement
